Source: patent publication US5124352A, “Fat emulsions containing isocarbacyclin” (Teijin Limited, priority 1985, dated 1992)

What was measured:
[1] = system: PRP (ADP platelet agglutination); experiment: ADP platelet agglutination inhibitory action by PRP; assay type: cell-based; design: reference not given here; conditions: 37° C., 0.025 μm filtrate
Experimental: Fifty (50) μl of the fat emulsion obtained in Examples 1 and 2 was transferred into 950 μl of saline or 2 % bovine serum albumin (BSA) and incubated at 37° C. for 1, 3, and 10 minutes. Next, the ADP platelet agglutination inhibitory action by PRP was determined using the filtrate which had been passed through a 0.025 μm filter. A known quantity of the dilution before filtration was added to PRP and incubated at 37° C. for 1 minute. Thereafter, ADP agglutination was induced to construct a dose-response curve. The platelet agglutination inhibitory action was calculated from this curve.

human platelets = experiment: Time course of the formation of cyclic AMP using human platelets (production capability and maintenance of cyclic AMP); assay type: cell-based; conditions: for Relative value (C-AMP production): first time point of the series = 100; for C-AMP production: human platelets, 37° C.
Experimental: The time course of the formation of cyclic AMP by the fat emulsion in the invention was determined using human platelets so as to compare with the time course of the compound which was not emulsified in fat. Human blood 50 ml was collected using 1 part of 3.8 % sodium citrate for 9 parts of blood. The blood sample was centrifuged at 1300 rpm for 10 minutes. The upper layer was taken out as PRP (platelet-rich plasma) and centrifuged at 3000 rpm for 20 minutes. The precipitate thus obtained (platelets) was suspended in 2 ml of Tris buffered solution-saline-glucose-EDTA (TSG-EDTA) (pH 7.4).
The fat emulsion, which had previously been transferred in a plastic tube containing 350 μl of TSG-EDIA and 50 μl of platelet suspension and incubated at 37° C., was supplemented with 50 μl of 5mM isobutylmethylxanthin dissolved in saline, and 2 minutes later, reactions were stopped with 0.5 ml of 10% trichloroacetic acid (TCA). The cells were destroyed by thawing the lyophilized specimen in order to release intracellular cyclic AMP. After removal of TCA with watersaturated ether, the content of C-AMP was determined by radio immunoassay technique.

With CCCCCC(O)C=CC1C(O)CC2C=C(CCCCC(=O)OC)CC21 (centres unmarked) [(IV), isocarbacyclin methyl ester] the “Platelet agglutination inhibitory action” value ([1]; 2% BSA, incubation time 1 min) was 65.4% and the “Platelet agglutination inhibitory action” value ([1]; 2% BSA, incubation time 10 min) was 56.2%.
For CCCCCC(O)C=CC1C(O)CC2C=C(CCCCC(=O)O)CC21 (stereo not drawn) [Compound (I), 9(0)-methano-Δ^6(9α) -PGI1], the “Relative value (C-AMP production)” value (human platelets; Time 0 min) was 100%, the C-AMP production (human platelets; Time 0 min) was 320 pico mol and the “Relative value (C-AMP production)” value (human platelets; Time 30 min) was 63%. For the same molecule, the C-AMP production (human platelets; Time 30 min) was 200 pico mol, the “Relative value (C-AMP production)” value (human platelets; Time 60 min) was 31% and the C-AMP production (human platelets; Time 60 min) was 100 pico mol. For the same molecule, the “Platelet agglutination inhibitory action” value ([1]; 2% BSA, incubation time 1 min) was 100.1%, the “Platelet agglutination inhibitory action” value ([1]; 2% BSA, incubation time 10 min) was 107.7% and the “Platelet agglutination inhibitory action” value ([1]; Saline, incubation time 10 min) was 41.1%.
For CCCCCC(O)C=CC1C(O)CC2C=C(CCCCC(=O)O)CC21 (centres unmarked) [Compound (II), 16,17,18,19,20-pentanor-15-pentylisocarbacyclin], the “Relative value (C-AMP production)” value (human platelets; Time 10 min) was 100%, the C-AMP production (human platelets; Time 10 min) was 430 pico mol and the “Relative value (C-AMP production)” value (human platelets; Time 30 min) was 74%. The C-AMP production (human platelets; Time 30 min) was 320 pico mol, the “Relative value (C-AMP production)” value (human platelets; Time 60 min) was 27% and the C-AMP production (human platelets; Time 60 min) was 120 pico mol.
For COC(=O)CCCC=C1OC2CC(O)C(C=CC(O)C3CCCC3)C2C1F (centres unmarked) [Compound (III), 7-fluoro-16,17,18,19, 20-pentanor-15-cyclopentylprostacyclin methyl ester], the “Relative value (C-AMP production)” value (human platelets; Time 30 min) was 100%, the C-AMP production (human platelets; Time 30 min) was 100 pico mol and the “Relative value (C-AMP production)” value (human platelets; Time 60 min) was 90%. The C-AMP production (human platelets; Time 60 min) was 90 pico mol, the “Relative value (C-AMP production)” value (human platelets; Time 120 min) was 40% and the C-AMP production (human platelets; Time 120 min) was 40 pico mol.
